Reference: patent US20230330254A1 (Regeneron Pharmaceuticals, Inc., priority 2022, published 2023)
Read-outs that look alike come from different tables or passages of the source. Where a SMILES comes first, the peptide text is derived from it. [ ]: non-standard residue; d: D form. The star is where a group is joined. Bip(2'-Et,4'-O(CH2)4NH2) = CCc1cc(OCCCCN)ccc1-c1ccc(C[C@H](N)C(=O)O)cc1; Nva(5-(3,5-Me2Ph)) = Cc1cc(C)cc(CCC[C@H](N)C(=O)O)c1; Ala(1H-tetrazol-5-yl) = N[C@@H](Cc1nnn[nH]1)C(=O)O; αMePhe(2-F) = C[C@](N)(Cc1ccccc1F)C(=O)O; X9 = O=C([C@@H]1CCN(CCc2cnc[nH]2)C1)*; X8 = O=C([C@H]1CCN(CCc2cnc[nH]2)C1)*

Molecular target: human GLP1R (Homo sapiens, UniProt P43220)
Test: Human GLP1R cAMP accumulation assay
Assay type: cell-based
Design: HEK293 cells over-expressing full length human GLP-1R were utilized; expressed in transfected cells; host or cells: HEK293 (HEK293/hGLP1R)
Protocol: 8.1 Human GLP1R cAMP Accumulation Assay (Cyclic AMP Determination)
The functional activity of the test compounds for agonizing GLP1R were evaluated using a cell-based assay. For the assay, HEK293 cells over-expressing full length human GLP-1R were utilized and the downstream cAMP accumulation was assessed as a measure of human GLP-1R stimulation. […] Diluted compounds were transferred to OptiPlates (100 nL/well) using an Echo liquid handler. HEK293/hGLP1R cells were thawed in 37° C. water-bath, washed 2 times with HBSS and re-suspended in assay buffer (HBSS+5 mM HEPES+500 μM IBMX+0.1% BSA). […] After centrifugation, the assay plate was incubated at 23° C. for 30 min. The reaction was terminated by adding 10 μL of lysis buffer containing D2-cAMP and a cAMP-antibody from the cyclic AMP immunoassay kit (Cisbio, Cat #62AM4PEJ). […] The levels of cAMP per well were calculated using a standard curve generated by GraphPad Prism. Percent activity was calculated according to the formula (% Activity=100%*(cAMP level-LC)/(HC-LC)). EC50 values were fitted from a four-parameter logistic equation over a 10-point response curve (GraphPad Prism).

[1] = HEK293/hGLP1R cells, Table 4, read-out: cAMP EC50

Sequence of human GLP1R (P43220 24-463): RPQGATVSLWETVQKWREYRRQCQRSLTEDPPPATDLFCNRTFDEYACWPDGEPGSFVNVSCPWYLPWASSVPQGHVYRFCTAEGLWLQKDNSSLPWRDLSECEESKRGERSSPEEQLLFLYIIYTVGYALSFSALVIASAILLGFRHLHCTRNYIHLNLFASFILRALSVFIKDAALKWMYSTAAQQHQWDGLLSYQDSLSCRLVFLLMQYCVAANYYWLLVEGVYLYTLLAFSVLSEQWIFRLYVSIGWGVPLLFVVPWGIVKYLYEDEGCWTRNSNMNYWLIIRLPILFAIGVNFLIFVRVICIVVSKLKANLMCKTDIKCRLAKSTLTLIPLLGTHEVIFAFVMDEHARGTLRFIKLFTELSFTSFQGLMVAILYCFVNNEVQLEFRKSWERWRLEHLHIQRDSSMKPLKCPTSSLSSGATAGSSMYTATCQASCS

EC50 [1] [nM] | Compound | EC50 [nM]
11.2 | CCc1cc(OCCCCN)ccc1-c1ccc(C[C@H](NC(=O)[C@H](CC(=O)O)NC(=O)[C@H](CO)NC(=O)[C@@H](NC(=O)[C@](C)(Cc2ccccc2F)NC(=O)[C@@H](NC(=O)CNC(=O)[C@H](Cc2nn[nH]n2)NC(=O)[C@@H]2CCN(CCc3cnc[nH]3)C2)[C@@H](C)O)[C@@H](C)O)C(=O)N[C@@H](CCCc2cc(C)cc(C)c2)C(N)=O)cc1 [P17-R] (X9-[Ala(1H-tetrazol-5-yl)]GT[αMePhe(2-F)]TSD[Bip(2'-Et,4'-O(CH2)4NH2)][Nva(5-(3,5-Me2Ph))]-NH2) | 
0.412 | CCc1cc(OCCCCn2cc(COCCOCCOCCOCCNC(=O)CCC(=O)N3Cc4ccccc4C#Cc4ccccc43)nn2)ccc1-c1ccc(C[C@H](NC(=O)[C@H](CC(=O)O)NC(=O)[C@H](CO)NC(=O)[C@@H](NC(=O)[C@](C)(Cc2ccccc2F)NC(=O)[C@@H](NC(=O)CNC(=O)[C@H](Cc2nn[nH]n2)NC(=O)C(C)(C)C(=O)NCCc2cnc[nH]2)[C@@H](C)O)[C@@H](C)O)C(=O)N[C@@H](CCCc2cc(C)cc(C)c2)C(N)=O)cc1 [LP8, DIBAC-suc-PEG4-triazole-P8] | 
0.544 | CCc1cc(OCCCCN)ccc1-c1ccc(C[C@H](NC(=O)[C@H](CC(=O)O)NC(=O)[C@H](CO)NC(=O)[C@@H](NC(=O)[C@](C)(Cc2ccccc2F)NC(=O)[C@@H](NC(=O)CNC(=O)[C@H](Cc2nn[nH]n2)NC(=O)[C@H]2CCN(CCc3cnc[nH]3)C2)[C@@H](C)O)[C@@H](C)O)C(=O)N[C@@H](CCCc2cc(C)cc(C)c2)C(N)=O)cc1 [P16-S] (X8-[Ala(1H-tetrazol-5-yl)]GT[αMePhe(2-F)]TSD[Bip(2'-Et,4'-O(CH2)4NH2)][Nva(5-(3,5-Me2Ph))]-NH2) | 
0.314 | CCc1cc(OCCCCNC(=O)CNC(=O)CNC(=O)CNC(=O)CNC(=O)[C@H](CO[C@@H]2OC(CO)[C@@H](O)C(O)C2O)NC(=O)CCC(=O)N2Cc3ccccc3C#Cc3ccccc32)ccc1-c1ccc(C[C@H](NC(=O)[C@H](CC(=O)O)NC(=O)[C@H](CO)NC(=O)[C@@H](NC(=O)[C@](C)(Cc2ccccc2F)NC(=O)[C@@H](NC(=O)CNC(=O)[C@H](Cc2nn[nH]n2)NC(=O)C(C)(C)C(=O)NCCc2cnc[nH]2)[C@@H](C)O)[C@@H](C)O)C(=O)N[C@@H](CCCc2cc(C)cc(C)c2)C(N)=O)cc1 (stereo partly drawn) [LP20, DIBAC-suc-(glucose) SG4-P9] | 
0.558 | CCc1cc(OCCCCNC(=O)[C@@H](CO)NC(=O)CNC(=O)CNC(=O)CNC(=O)CNC(=O)COC2C#CCCCCC2)ccc1-c1ccc(C[C@H](NC(=O)[C@H](CC(=O)O)NC(=O)[C@H](CO)NC(=O)[C@@H](NC(=O)C(C)(Cc2ccccc2F)NC(=O)[C@@H](NC(=O)CNC(=O)[C@H](Cc2nn[nH]n2)NC(=O)C(C)(C)C(=O)NCCc2cnc[nH]2)[C@@H](C)O)[C@@H](C)O)C(=O)N[C@@H](CCCc2cc(C)cc(C)c2)C(N)=O)cc1 (stereo partly drawn) [LP19, COT-G4-(R)Ser-P9] | 
 | CCc1cc(OCCCCNC(=O)CCOCCOCCOCCOCCOCCOCCOCCOCCOCCOCCOCCOCCOCCOCCOCCOCCOCCOCCOCCOCCOCCOCCOCCOCCNC(=O)CCC(=O)N2Cc3ccccc3-c3nnn(CC4OC5OC6C(CO)OC(OC7C(CO)OC(OC8C(CO)OC(OC9C(CO)OC(OC%10C(CO)OC(OC4C(O)C5O)C(O)C%10O)C(O)C9O)C(O)C8O)C(O)C7O)C(O)C6O)c3-c3ccccc32)ccc1-c1ccc(C[C@H](NC(=O)[C@H](CC(=O)O)NC(=O)[C@H](CO)NC(=O)[C@@H](NC(=O)[C@](C)(Cc2ccccc2F)NC(=O)[C@@H](NC(=O)CNC(=O)[C@H](Cc2nn[nH]n2)NC(=O)C(C)(C)C(=O)NCCc2cnc[nH]2)[C@@H](C)O)[C@@H](C)O)C(=O)N[C@@H](CCCc2cc(C)cc(C)c2)C(N)=O)cc1 (stereo partly drawn) [LP22, cyclo-dex-trin-triazole-DIBAC-suc-PEG24-P9] | 2.71
0.727 | CCc1cc(OCCCCN)ccc1-c1ccc(C[C@H](NC(=O)[C@H](CC(=O)O)NC(=O)[C@H](CO)NC(=O)[C@@H](NC(=O)[C@](C)(Cc2ccccc2F)NC(=O)[C@@H](NC(=O)CNC(=O)[C@H](Cc2nn[nH]n2)NC(=O)[C@]2(C)CCN(CCc3cnc[nH]3)C2=O)[C@@H](C)O)[C@@H](C)O)C(=O)N[C@@H](CCCc2cc(C)cc(C)c2)C(N)=O)cc1 [P14-S] | 

Compound | EC50 [1] [nM] | EC50 [nM]
CCc1cc(OCCCCNC(=O)CNC(=O)CNC(=O)CNC(=O)CNC(=O)[C@H](CO)NC(=O)CCC(=O)N2Cc3ccccc3C#Cc3ccccc32)ccc1-c1ccc(C[C@H](NC(=O)[C@H](CC(=O)O)NC(=O)[C@H](CO)NC(=O)[C@@H](NC(=O)[C@](C)(Cc2ccccc2F)NC(=O)[C@@H](NC(=O)CNC(=O)[C@H](Cc2nn[nH]n2)NC(=O)C(C)(C)C(=O)NCCc2cnc[nH]2)[C@@H](C)O)[C@@H](C)O)C(=O)N[C@@H](CCCc2cc(C)cc(C)c2)C(=O)Nc2ccccc2)cc1 [LP16, DIBAC-suc-SG4-P23] | 1.04 | 
CCc1cc(OCCCCN)ccc1-c1ccc(C[C@H](NC(=O)[C@H](CC(=O)O)NC(=O)[C@H](CO)NC(=O)[C@@H](NC(=O)[C@](C)(Cc2ccccc2F)NC(=O)[C@@H](NC(=O)CNC(=O)[C@@H](N)CCC(N)=O)[C@@H](C)O)[C@@H](C)O)C(=O)N[C@@H](CCCc2cc(C)cc(C)c2)C(N)=O)cc1 [P20, (3S)-4-[[(1S)-1-[[4-[4-(4-aminobutoxy)-2-ethyl-phenyl]phenyl]methyl]-2-[[(1S)-1-carbamoyl-4-(3,5-dimethylphenyl)butyl]amino]-2-oxo-ethyl]amino]-3-[[(2S)-2-[[(2S,3R)-2-[[(2S)-2-[[(2S,3R)-2-[[2-[[(2S)-2,5-diamino-5-oxopentanoyl]amino]acetyl]amino]-3-hydroxy-butanoyl]amino]-3-(2-fluorophenyl)-2-methyl-propanoyl]amino]-3-hydroxybutanoyl]amino]-3-hydroxy-propanoyl]amino]-4-oxo-butanoic acid] | 0.37 | 
